Our source for the EC50 values is PubChem BioAssay AID504814 (The Scripps Research Institute Molecular Screening Center, 2011).

Active and inactive are the calls of the source.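 Rule for the calls: active = EC50 of 10 µM or lower; inactive = EC50 above 10 µM.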 Bounds are passed on as bounds.

Sequence of Caspase-7 (Homo sapiens) (P55210 whole entry D23A/D198A/D206A): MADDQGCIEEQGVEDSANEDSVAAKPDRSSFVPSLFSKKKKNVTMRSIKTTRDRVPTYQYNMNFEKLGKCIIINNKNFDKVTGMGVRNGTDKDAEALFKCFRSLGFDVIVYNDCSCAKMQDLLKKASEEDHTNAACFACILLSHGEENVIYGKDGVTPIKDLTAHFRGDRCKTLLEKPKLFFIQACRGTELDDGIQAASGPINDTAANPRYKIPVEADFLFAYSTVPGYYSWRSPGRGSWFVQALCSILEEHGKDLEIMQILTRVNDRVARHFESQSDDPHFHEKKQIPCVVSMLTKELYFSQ

The experiment concerns the target Caspase-7 (Homo sapiens) (UniProt P55210). In words: procaspase-7 activation by procaspase-3 probe candidates, late-stage follow-up, selectivity assay for procaspase-3 activator project, biochemical, absorbance, PC-7 D3A triple mutant, powder samples (AID 504814). The settings on record: recombinant procaspase-7 D3A, Ac-DEVD-pNA absorbance.
Consider `COc1ccccc1Nc1nc2c(C)cccc2cc1C#N`, for which the EC50 (as a rule, the concentration at which the effect is half-maximal) was > 85.3 µM (inactive).
Turning to `CC(NC(=O)c1cc2cc([N+](=O)[O-])ccc2oc1=O)C1CCCO1` (stereo not given), the EC50 result was “inactive”.
As for `COC(=O)c1ccccc1NCc1cc(=O)oc2cc(O)c(O)cc12`, the figure is > 85.3 µM (inactive); as for `C=CCn1c(=NC(=O)c2cc(-c3cccs3)nc3ccccc23)sc2cc(S(N)(=O)=O)ccc21`, 7.68 µM.
As for `CC(=O)Oc1cccc2c1C(=O)c1c(OC(C)=O)cc(C(=O)O)cc1C2=O`, the entry is “inactive”.
